Experimental findings from patent US11512042B2, “Enamine compounds for absorbance of electromagnetic energy” (Commonwealth Scientific and Industrial Research Organisation, priority 2015, dated 2022) are described below.

Data set [1] in a line: UV absorbance spectrum in solution (λmax, λcrit, extinction coefficients). To be noted: for λcrit: critical wavelength; for E (1%, 1 cm): mass extinction coefficient; for ε: molar extinction coefficient, in M-1 cm-1 (unit assumed). Format: physicochemical. The source says: (§1) FIG. 1 is a graphical representation of the absorbance of compounds 142 and 143 measured in a 10 mm cuvette as 0.001% solutions in methanol (142 is the uppermost trace at peak point of approximately 330 nm); The synthesised benzoyl functionalised compounds and their spectroscopic properties can be seen in table 2 wherein; breakthrough denotes the value in nm where transmittance increases beyond 1%; steepness refers to the distance in nm over which transmittance increases from 1 to 80% (a higher value indicates a less steep transition from absorbing to transmitting and is generally unfavourable); and ^a denotes an average of multiple measurements. As a general comment, it can be noted that the benzoyl substituted compounds gave similar absorbance maxima to the corresponding trifluoroacetyl derivative.

A short description of data set [2]: % transmission spectrum of 0.1% solution (breakthrough, steepness). It counts as physicochemical. To be noted: for Steepness: distance in nm over which transmittance increases from 1 to 80%; for Breakthrough (1% T at 0.1%): value in nm where transmittance increases beyond 1%, 0.1% solution.
Excerpt: FIG. 2 is a is a graphical representation of the % transmission of compounds 142 and 143 measured in a 2 mm cuvette as 0.1% solutions in methanol (142 is the left most trace);
as §1, with “The” for “FIG. 1 is a graphical representation of the absorbance of compounds 142 and 143 measured in a 10 mm cuvette as 0.001% solutions in methanol (142 is the uppermost trace at peak point of approximately 330 nm); The”

Where “and” joins values, the source holds several entries; their conditions need not be identical. Identical values can stand only once.

Regarding `CCCCCCC(=O)C1=CN(c2ccc(N3C=C(C(=O)CCCCCC)C(C)(C)CC3)cc2)CCC1(C)C` [Compound 129, reference compound], in data set [1], the λmax was determined as 359 nm; the λcrit stood at 378 nm; the “E (1%, 1 cm)” value was 1169 and 1350; the ε was 60809 and 70222. Also, in data set [2], the Steepness was 20 nm and the “Breakthrough (1% T at 0.1%)” value was found to be 397 nm.
`CCCCC(CC)COc1cccc(N(/C=C(\C(=O)C(F)(F)F)c2ccccc2)CC)c1` (stereo not shown) [Compound 221]: in data set [1], the λmax is 332 nm; the λcrit is given as 366 nm; the “E (1%, 1 cm)” value came out at 490; the ε was determined as 21876.
On the same counts, the results for `Cc1ccccc1N(/C=C(\C(=O)C(F)(F)F)c1ccccc1)c1ccccc1` [Compound 223] are 344 nm, 377 nm, 679 and 25885.
On the same counts, the results for `CCN(/C=C(\C(=O)C(F)(F)F)c1ccccc1)c1cccc(Br)c1` [Compound 225] are 332 nm, 366 nm, 609 and 24181.
For `CCN(/C=C(\C(=O)C(F)(F)F)c1ccccc1)CCOC(=O)c1ccc2c(c1)CCN2/C=C(\C(=O)C(F)(F)F)c1ccccc1` [Compound 226], in that order: 374 nm, 388 nm, 685 and 43151.
Take `COC(=O)c1ccc(N(/C=C(\C(=O)C(F)(F)F)c2ccccc2)c2ccccc2)cc1` [Compound 229]: in data set [1], the λmax was determined as 356 nm; the λcrit was 382 nm; the “E (1%, 1 cm)” value is 786; the ε was 33427. Moreover, in data set [2], the Steepness is 33 nm and the “Breakthrough (1% T at 0.1%)” value is 403 nm.
As to `CCCCC(CC)COC(=O)c1ccc(N(/C=C(\C(=O)C(F)(F)F)c2ccccc2)c2ccccc2)cc1` (stereo not shown) [Compound 230], in data set [1], the λmax came out at 355 nm; the λcrit came out at 381 nm; the “E (1%, 1 cm)” value is recorded as 522; the ε is on record as 27313. Further, in data set [2], the Steepness stood at 34 nm and the “Breakthrough (1% T at 0.1%)” value was determined as 398 nm.
With `CCCCC(CC)COC(=O)c1cccc(N(/C=C(/C(=O)C(F)(F)F)c2ccccc2)CC)c1` (stereo not shown) [Compound 232], in data set [1], the λmax is 334 nm; the λcrit was 368 nm; the “E (1%, 1 cm)” value worked out at 430; the ε was determined as 20462. Moreover, in data set [2], the Steepness is on record as 35 nm and the “Breakthrough (1% T at 0.1%)” value was found to be 373 nm.
As to `O=C(/C(=C\N1CCc2cc(C(F)(F)F)ccc21)c1ccccc1)C(F)(F)F` [Compound 235], in data set [1], the λmax came out at 361 nm; the λcrit was found to be 386 nm; the “E (1%, 1 cm)” value is on record as 965; the ε is 37158. In addition, in data set [2], the Steepness is 19 nm and the “Breakthrough (1% T at 0.1%)” value came out at 409 nm.
Regarding `O=C(/C(=C\N1CCc2ccc(C(F)(F)F)cc21)c1ccccc1)C(F)(F)F` [Compound 236], in data set [1], the λmax is listed as 364 nm; the λcrit turned out to be 387 nm; the “E (1%, 1 cm)” value is on record as 815; the ε stood at 31379. In addition, in data set [2], the Steepness was determined as 19 nm and the “Breakthrough (1% T at 0.1%)” value is on record as 409 nm.
For `CCN(/C=C(/C(=O)C(F)(F)F)c1ccccc1)c1ccc(C(=O)OC)cc1` [Compound 239], in data set [1], the λmax was found to be 348 nm; the λcrit was 375 nm; the “E (1%, 1 cm)” value worked out at 728; the ε worked out at 25349. In data set [2], the Steepness was found to be 28 nm and the “Breakthrough (1% T at 0.1%)” value stood at 391 nm.
`CCN(/C=C(\C(=O)C(F)(F)F)c1ccccc1)CCCCCCN(/C=C(\C(=O)C(F)(F)F)c1ccccc1)CC` [Compound 242]: in data set [1], the λmax was 318 nm; the λcrit was determined as 353 nm; the “E (1%, 1 cm)” value is 544; the ε is on record as 30981. For the same compound, in data set [2], the Steepness is 52 nm and the “Breakthrough (1% T at 0.1%)” value worked out at 361 nm.
Take `CN(C)S(=O)(=O)c1ccc(C(=O)/C(=C/N(c2ccccc2)c2ccccc2)c2ccccc2)cc1` [Compound 265]: in data set [1], the λmax is reported as 360 nm; the λcrit is 387 nm; the “E (1%, 1 cm)” value is 327; the ε is 15775. In data set [2], the Steepness came to 48 nm and the “Breakthrough (1% T at 0.1%)” value is 418 nm.
Regarding `CN(C)S(=O)(=O)c1ccc(C(=O)/C(=C/N2CCc3ccccc32)c2ccccc2)cc1` [Compound 266], in data set [1], the λmax came to 368 nm; the λcrit is 390 nm; the “E (1%, 1 cm)” value is 552; the ε stood at 23870. Moreover, in data set [2], the Steepness worked out at 46 nm and the “Breakthrough (1% T at 0.1%)” value was 429 nm.
Take `COC(=O)c1ccc2c(c1)CCN2/C=C(/C(=O)C(=O)Oc1ccccc1)c1ccccc1` [Compound 281]: in data set [1], the λmax came out at 376 nm; the λcrit turned out to be 392 nm; the “E (1%, 1 cm)” value is reported as 703; the ε came out at 30040. For the same compound, in data set [2], the Steepness stood at 34 nm and the “Breakthrough (1% T at 0.1%)” value was determined as 419 nm.
With `COC(=O)c1ccc2c(c1)CCN2/C=C(/C(=O)c1ccc(C)cc1)c1ccccc1` [Compound 284], in data set [1], the λmax is 371 nm; the λcrit was 389 nm; the “E (1%, 1 cm)” value is reported as 1150; the ε stood at 45689. Besides, in data set [2], the Steepness is on record as 30 nm and the “Breakthrough (1% T at 0.1%)” value was determined as 423 nm.
On to `COC(=O)c1ccc2c(c1)CCN2/C=C(/C(=O)c1cccc(C)c1)c1ccccc1` [Compound 286], for which, in data set [1], the λmax is 370 nm; the λcrit was found to be 389 nm; the “E (1%, 1 cm)” value came to 1205; the ε was determined as 47867. Further, in data set [2], the Steepness came out at 46 nm and the “Breakthrough (1% T at 0.1%)” value amounted to 423 nm.
For the compound `COC(=O)c1ccc2c(c1)CCN2/C=C(/C(=O)OC1(C)CCCCC1)c1ccccc1` [Compound 288], in data set [1], the λmax stood at 356 nm; the λcrit is recorded as 370 nm; the “E (1%, 1 cm)” value worked out at 1360; the ε was found to be 57009. Besides, in data set [2], the Steepness worked out at 28 nm and the “Breakthrough (1% T at 0.1%)” value was 383 nm.
As to `CC(C)(C)C(=O)/C(=C/N(c1ccccc1)c1ccccc1)c1ccccc1` [Compound 294], in data set [1], the λmax was determined as 344 nm; the λcrit is 373 nm; the “E (1%, 1 cm)” value is 492; the ε is reported as 17462. Besides, in data set [2], the Steepness is given as 28 nm and the “Breakthrough (1% T at 0.1%)” value was 383 nm.
